≈ marks a conversion by molar mass, not a printed value. Read-outs that look alike come from different tables or passages of the source.

The values below come from patent publication US10034854B2, “Pharmaceutical composition with improved bioavailability” (Hoffmann-La Roche Inc., priority 2013, dated 2018).

A short description of data set [1]: Salt screening: solubility of various salts of Compound A. The conditions noted are these: for solubility: salts of Compound A, at the pH of the same line.
The nature of data set [2]: Solubility in bio-relevant fluids (FaSSIF, FeSSIF). The format is physicochemical. The conditions noted are these: thermodynamic from solid, 37° C. On the procedure:
Approximately 5 mg of Compound A as MBP was placed in 20 mL of 37° C. bio-relevant fluids (Fasted State Simulated Intestinal Fluid and Fed State Simulated Intestinal Fluid) and was filtered through a 0.2 μm filter over time. The filtrate was then analyzed by HPLC.

Data set [3] is described as follows: Aqueous solubility of crystalline Compound A at physiological pHs. The format is physicochemical.
Data set [4] is described as follows: Caco-2 assay (permeability). As to conditions: human. The format is in vitro ADME. The text has this:
The permeability of the compound is not high as determined with the Caco-2 assay value of 0.8×10^−6 cm/s. The poor solubility and the targeted high doses/frequency of dosing for this series of compounds led to the categorization of Compound A as BCS class IV compound (poor solubility/poor permeability).

Data set [5] is described as follows: Pharmacokinetics / bioavailability in monkeys. As to conditions: IV, 1.25 mg/kg, fed.
A short description of data set [6]: Animal pharmacokinetics study of formulations (FIG. 3). The conditions noted are these: oral formulations.
[7] abbreviates: pH belonging to the solubility value of the salt.

Take `CS(=O)(=O)O` [Methanesulfonic acid (Mesylate)]: the pH in data set [1] is recorded as 3.1.

By solubility is commonly meant how much of the substance goes into solution per volume. Take `COc1cc(C(=O)O)ccc1NC(=O)[C@@H]1N[C@@H](CC(C)(C)C)[C@](C#N)(c2ccc(Cl)cc2F)[C@H]1c1cccc(Cl)c1F` [Crystalline Form, 4-{[(2R,3S,4R,5S)-4-(4-Chloro-2-fluoro-phenyl)-3-(3-chloro-2-fluoro-phenyl)-4-cyano-5-(2,2-dimethyl-propyl)-pyrrolidine-2-carbonyl]-amino}-3-methoxy-benzoic acid]: the solubility was 2 µg/mL (≈ 3.24 µM) in data set [2] (Fasted State Simulated Intestinal Fluid (FaSSIF), FaSSIF) and 3 µg/mL (≈ 4.87 µM) in data set [2] (Fed State Simulated Intestinal Fluid (FeSSIF), FeSSIF).

`[K+]` [Potassium]: the pH in data set [1] (setting [7]) was 8.0. Besides, the solubility in data set [1] turned out to be 0.5 µg/mL.

For the molecule Sodium, in data set [1] (setting [7]), the pH was determined as 7.2. Besides, in data set [1], the solubility was determined as 0.7 µg/mL.

The Papp is the rate of passage across a membrane or cell layer, normalised by area and donor concentration. A lower Papp goes with poor permeation. In data set [3] (aqueous medium, aqueous buffer, crystalline form, physiological pHs (pH 1.5-7.0)), `COc1cc(C(=O)O)ccc1NC(=O)[C@@H]1N[C@@H](CC(C)(C)C)[C@](C#N)(c2ccc(Cl)cc2F)[C@H]1c1cccc(Cl)c1F` [Compound A, 4-{[(2R,3S,4R,5S)-4-(4-Chloro-2-fluoro-phenyl)-3-(3-chloro-2-fluoro-phenyl)-4-cyano-5-(2,2-dimethyl-propyl)-pyrrolidine-2-carbonyl]-amino}-3-methoxy-benzoic acid] came in with a solubility of less than 0.05 µg/mL. In data set [3] (pH 1.5, aqueous buffer, crystalline forms, in water at physiological pHs (pH1.5-8.0)), this molecule showed a solubility of less than 0.05 µg/mL. The molecule further yielded an apparent permeability (Papp) in data set [4] of 0.8 ×10⁻⁶ cm/s. In addition, in data set [5], the “% AUC Extrap” value stood at 0.7% and the AUC/Dose is 10.3 µg·h/mL/mg/kg.

Turning to `Cc1ccc(S(=O)(=O)O)cc1` [p-Toluenesulfonic acid], the pH in data set [1] (setting [7]) is 2.7. Further, the solubility in data set [1] was less than 0.02 µg/mL.

Consider `CNC[C@H](O)[C@@H](O)[C@H](O)[C@H](O)CO` [Meglamine], for which the “bioavailability (exposure) (in words)” value in data set [6] is given as “not improved”. Further, in data set [1] (among the salts identified in salt screening), the “aqueous solubility (in words)” value is “most improved aqueous solubility”. In data set [1] (setting [7]), the pH is listed as 7.8. Moreover, the solubility in data set [1] was greater than 1400 µg/mL.
